Experiment [1] addresses Fibroblast growth factor receptor 1 (Homo sapiens, UniProt P11362). Put plainly: Selectivity interaction (Upstate Kinase Profiler service (Millipore)) EUB0000056c FGFR1. Particulars: at 1 µM.
Experiment [2] has as its target Mitogen-activated protein kinase 7 (Homo sapiens) (UniProt Q13164). Particulars: at 10 µM.
Experiment [3] concerns the target T1, Serine/threonine-protein kinase Nek5 (Homo sapiens) (UniProt Q6P3R8).
T1 sequence (whole entry): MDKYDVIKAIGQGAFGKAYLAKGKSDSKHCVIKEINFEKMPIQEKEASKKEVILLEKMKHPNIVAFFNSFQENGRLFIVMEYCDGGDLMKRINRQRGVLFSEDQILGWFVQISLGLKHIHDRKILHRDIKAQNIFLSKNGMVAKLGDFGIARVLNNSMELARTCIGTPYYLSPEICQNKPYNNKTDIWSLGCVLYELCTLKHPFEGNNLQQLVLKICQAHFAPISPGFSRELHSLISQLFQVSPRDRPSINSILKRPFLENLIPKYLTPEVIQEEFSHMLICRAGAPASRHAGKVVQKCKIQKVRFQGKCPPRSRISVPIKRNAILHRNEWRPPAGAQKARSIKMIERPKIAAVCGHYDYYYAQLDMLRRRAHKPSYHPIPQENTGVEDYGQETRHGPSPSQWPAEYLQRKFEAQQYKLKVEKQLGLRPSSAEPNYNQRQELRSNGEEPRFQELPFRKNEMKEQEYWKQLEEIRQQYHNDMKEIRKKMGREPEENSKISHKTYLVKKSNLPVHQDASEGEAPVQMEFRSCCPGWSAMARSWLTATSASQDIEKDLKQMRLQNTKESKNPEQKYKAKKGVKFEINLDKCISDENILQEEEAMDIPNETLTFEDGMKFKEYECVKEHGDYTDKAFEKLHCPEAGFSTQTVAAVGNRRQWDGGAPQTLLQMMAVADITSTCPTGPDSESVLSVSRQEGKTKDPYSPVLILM
Put plainly: Selectivity interaction (Ambit KINOMEscan and KiNATiv profiling in Jurkat cells) EUB0000090b NEK5. The conditions noted are these: at 1 µM. In kind it is cell-based.

For experiment [4], the target named is Dual specificity tyrosine-phosphorylation-regulated kinase 1B (Homo sapiens, UniProt Q9Y463). Put plainly: Selectivity interaction (KinomeScan (DiscoverX)) EUB0001079a DYRK1B. The conditions noted are these: at 1 µM.
Dual specificity tyrosine-phosphorylation-regulated kinase 1B, sequence (Q9Y463 whole entry, looked up): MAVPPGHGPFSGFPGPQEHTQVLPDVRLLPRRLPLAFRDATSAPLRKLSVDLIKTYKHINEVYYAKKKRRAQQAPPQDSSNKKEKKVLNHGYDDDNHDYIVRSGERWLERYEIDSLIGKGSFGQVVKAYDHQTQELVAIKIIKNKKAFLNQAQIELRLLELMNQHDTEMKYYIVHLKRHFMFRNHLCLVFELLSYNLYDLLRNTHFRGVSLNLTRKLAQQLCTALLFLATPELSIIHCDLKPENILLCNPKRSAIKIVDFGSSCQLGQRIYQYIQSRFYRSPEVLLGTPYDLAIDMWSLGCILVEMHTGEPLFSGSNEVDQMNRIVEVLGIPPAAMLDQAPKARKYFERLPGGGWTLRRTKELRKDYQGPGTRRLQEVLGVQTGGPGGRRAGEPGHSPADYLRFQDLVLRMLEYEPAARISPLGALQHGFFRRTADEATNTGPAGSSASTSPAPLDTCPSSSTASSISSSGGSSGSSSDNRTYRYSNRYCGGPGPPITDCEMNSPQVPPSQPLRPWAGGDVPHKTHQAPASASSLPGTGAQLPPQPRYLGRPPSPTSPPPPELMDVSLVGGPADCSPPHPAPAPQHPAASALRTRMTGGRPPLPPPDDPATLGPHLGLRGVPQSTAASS
Experiment [5] concerns Fibroblast growth factor receptor 3 (Homo sapiens), P22607 [G697C]. The experiment is described as follows: (§1) Selectivity interaction (KinomeScan (DiscoverX)) EUB0001079a FGFR3. The conditions noted are these: at 1 µM.
Fibroblast growth factor receptor 3 (Homo sapiens), P22607 [G697C], sequence (P22607 whole entry G697C): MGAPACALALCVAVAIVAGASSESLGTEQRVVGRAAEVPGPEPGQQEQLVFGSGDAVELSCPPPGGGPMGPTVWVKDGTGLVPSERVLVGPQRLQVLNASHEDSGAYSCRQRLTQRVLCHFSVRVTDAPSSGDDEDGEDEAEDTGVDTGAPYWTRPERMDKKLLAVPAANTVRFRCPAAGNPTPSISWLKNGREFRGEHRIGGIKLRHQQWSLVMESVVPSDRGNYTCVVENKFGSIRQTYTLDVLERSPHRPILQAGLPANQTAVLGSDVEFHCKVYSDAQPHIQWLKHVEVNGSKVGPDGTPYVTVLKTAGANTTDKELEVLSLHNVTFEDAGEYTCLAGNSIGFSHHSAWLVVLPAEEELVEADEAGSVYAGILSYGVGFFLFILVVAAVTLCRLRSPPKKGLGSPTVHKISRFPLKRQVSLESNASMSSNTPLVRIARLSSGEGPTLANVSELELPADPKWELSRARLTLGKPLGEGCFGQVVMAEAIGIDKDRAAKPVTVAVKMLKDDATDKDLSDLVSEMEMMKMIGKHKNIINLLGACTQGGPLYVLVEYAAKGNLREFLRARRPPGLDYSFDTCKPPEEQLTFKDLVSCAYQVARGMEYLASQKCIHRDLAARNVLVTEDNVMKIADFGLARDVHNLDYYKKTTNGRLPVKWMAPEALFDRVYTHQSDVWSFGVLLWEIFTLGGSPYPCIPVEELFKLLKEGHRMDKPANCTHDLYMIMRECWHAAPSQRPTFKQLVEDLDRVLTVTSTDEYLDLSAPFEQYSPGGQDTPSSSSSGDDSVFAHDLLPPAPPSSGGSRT
Experiment [6] deals with Fibroblast growth factor receptor 3 (Homo sapiens, UniProt P22607). The experiment is described as §1. The conditions noted are these: at 1 µM.
The target in experiment [7] is BDNF/NT-3 growth factors receptor (Homo sapiens) (UniProt Q16620). Put plainly: Selectivity interaction (KinomeScan (DiscoverX)) EUB0001079a NTRK2. Particulars: at 1 µM.
BDNF/NT-3 growth factors receptor (Homo sapiens), sequence (Q16620 32-822 limits assumed): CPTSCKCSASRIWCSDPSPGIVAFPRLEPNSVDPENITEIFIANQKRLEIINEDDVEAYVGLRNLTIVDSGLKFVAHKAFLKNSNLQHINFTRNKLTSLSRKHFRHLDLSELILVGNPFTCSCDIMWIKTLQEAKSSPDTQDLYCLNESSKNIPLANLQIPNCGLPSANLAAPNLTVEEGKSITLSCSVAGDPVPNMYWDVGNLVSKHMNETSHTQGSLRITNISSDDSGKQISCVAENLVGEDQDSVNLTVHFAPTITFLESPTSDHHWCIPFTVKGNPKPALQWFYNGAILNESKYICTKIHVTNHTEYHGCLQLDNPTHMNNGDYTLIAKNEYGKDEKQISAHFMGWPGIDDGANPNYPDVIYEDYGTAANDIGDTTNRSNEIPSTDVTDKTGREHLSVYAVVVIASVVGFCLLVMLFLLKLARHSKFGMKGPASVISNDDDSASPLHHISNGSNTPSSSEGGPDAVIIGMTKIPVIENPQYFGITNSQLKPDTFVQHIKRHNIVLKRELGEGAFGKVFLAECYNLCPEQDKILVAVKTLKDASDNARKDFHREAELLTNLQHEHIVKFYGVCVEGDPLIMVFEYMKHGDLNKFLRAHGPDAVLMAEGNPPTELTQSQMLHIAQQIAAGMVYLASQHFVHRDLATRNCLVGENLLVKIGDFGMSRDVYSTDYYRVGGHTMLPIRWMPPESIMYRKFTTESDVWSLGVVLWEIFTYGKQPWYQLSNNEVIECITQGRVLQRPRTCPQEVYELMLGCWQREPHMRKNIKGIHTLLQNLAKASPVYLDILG
Experiment [8] addresses T2, Ribosomal protein S6 kinase alpha-1 (Homo sapiens, UniProt Q15418). The experiment is described as follows: Selectivity interaction (KinomeScan (DiscoverX)) EUB0001079a RPS6KA1. The conditions noted are these: at 1 µM.
Experiment [9] deals with T3, Phosphatidylinositol 3-kinase C2 domain-containing subunit gamma (Homo sapiens) (UniProt O75747).
T3 sequence (whole entry): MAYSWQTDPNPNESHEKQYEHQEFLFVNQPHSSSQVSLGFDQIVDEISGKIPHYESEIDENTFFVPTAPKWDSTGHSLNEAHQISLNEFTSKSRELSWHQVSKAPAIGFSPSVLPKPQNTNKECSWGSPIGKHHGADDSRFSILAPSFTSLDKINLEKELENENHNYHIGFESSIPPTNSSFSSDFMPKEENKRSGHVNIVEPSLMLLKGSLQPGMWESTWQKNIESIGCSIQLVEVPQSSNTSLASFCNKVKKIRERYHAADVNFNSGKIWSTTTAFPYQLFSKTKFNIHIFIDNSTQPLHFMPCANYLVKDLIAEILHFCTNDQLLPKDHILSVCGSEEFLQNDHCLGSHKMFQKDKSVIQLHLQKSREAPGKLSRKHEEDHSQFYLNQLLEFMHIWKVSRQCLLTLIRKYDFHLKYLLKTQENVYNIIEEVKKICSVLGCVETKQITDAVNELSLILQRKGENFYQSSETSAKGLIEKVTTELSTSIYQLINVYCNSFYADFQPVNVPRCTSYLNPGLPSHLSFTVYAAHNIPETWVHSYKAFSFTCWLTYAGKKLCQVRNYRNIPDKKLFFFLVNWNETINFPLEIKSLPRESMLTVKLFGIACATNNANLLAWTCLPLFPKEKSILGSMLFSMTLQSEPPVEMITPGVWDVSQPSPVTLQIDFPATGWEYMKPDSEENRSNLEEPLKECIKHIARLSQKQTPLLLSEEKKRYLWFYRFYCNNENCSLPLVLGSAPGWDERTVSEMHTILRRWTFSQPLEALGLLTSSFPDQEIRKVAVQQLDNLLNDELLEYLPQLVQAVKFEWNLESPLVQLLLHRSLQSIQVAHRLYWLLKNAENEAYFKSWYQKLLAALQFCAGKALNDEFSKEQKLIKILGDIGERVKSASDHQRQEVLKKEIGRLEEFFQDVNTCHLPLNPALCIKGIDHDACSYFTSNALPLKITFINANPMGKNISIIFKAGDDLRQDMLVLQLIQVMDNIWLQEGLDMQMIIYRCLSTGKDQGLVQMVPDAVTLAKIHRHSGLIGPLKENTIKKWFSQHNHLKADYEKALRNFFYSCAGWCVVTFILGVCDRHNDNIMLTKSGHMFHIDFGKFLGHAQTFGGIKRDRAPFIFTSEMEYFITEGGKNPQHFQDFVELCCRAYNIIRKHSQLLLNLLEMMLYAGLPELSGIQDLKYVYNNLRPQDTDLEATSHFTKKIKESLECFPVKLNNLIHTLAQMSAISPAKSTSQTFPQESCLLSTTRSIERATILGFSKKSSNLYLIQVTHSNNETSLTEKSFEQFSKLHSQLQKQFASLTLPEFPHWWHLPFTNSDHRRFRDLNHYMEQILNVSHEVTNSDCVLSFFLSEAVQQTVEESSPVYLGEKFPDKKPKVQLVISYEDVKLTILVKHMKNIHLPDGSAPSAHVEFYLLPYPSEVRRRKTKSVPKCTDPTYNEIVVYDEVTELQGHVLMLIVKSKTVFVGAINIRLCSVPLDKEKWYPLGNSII
The experiment is described as follows: Selectivity interaction (KinomeScan (DiscoverX)) EUB0000695a PIK3C2G. Particulars: at 100 nM.

Experiment [10] deals with Serine/threonine-protein kinase PLK1 (Homo sapiens, UniProt P53350). The experiment is described as follows: Selectivity interaction (ActivX KiNativ screen (kinase selectivity in THP-1 cell lysates)) EUB0000639a PLK1. In kind it is subcellular. The conditions noted are these: lysate, at 0.04 µM.
The target of experiment [11] is Ephrin type-A receptor 7 (Homo sapiens) (UniProt Q15375). The experiment is described as follows: Selectivity interaction (Kinase panel (DSF assay)) EUB0001559a EPHA7. In general terms: Differential scanning fluorimetry follows unfolding on heating by fluorescence.
Experiment [12] addresses T2, Ribosomal protein S6 kinase alpha-1. The experiment is described as follows: Selectivity interaction (Kinase panel (KiNativ target engagement assay in Jurkat cells)) EUB0001635a RPS6KA1. Particulars: Selectivity number of off-targets 0.0, Selectivity number of targets 233.0, Source Knowledge https://www.sciencedirect.com/science/article/pii/S2451945619300674?via%3Dihub, at 1 µM. In kind it is cell-based.

T2 sequence (Q15418 whole entry, the tested form may be a part): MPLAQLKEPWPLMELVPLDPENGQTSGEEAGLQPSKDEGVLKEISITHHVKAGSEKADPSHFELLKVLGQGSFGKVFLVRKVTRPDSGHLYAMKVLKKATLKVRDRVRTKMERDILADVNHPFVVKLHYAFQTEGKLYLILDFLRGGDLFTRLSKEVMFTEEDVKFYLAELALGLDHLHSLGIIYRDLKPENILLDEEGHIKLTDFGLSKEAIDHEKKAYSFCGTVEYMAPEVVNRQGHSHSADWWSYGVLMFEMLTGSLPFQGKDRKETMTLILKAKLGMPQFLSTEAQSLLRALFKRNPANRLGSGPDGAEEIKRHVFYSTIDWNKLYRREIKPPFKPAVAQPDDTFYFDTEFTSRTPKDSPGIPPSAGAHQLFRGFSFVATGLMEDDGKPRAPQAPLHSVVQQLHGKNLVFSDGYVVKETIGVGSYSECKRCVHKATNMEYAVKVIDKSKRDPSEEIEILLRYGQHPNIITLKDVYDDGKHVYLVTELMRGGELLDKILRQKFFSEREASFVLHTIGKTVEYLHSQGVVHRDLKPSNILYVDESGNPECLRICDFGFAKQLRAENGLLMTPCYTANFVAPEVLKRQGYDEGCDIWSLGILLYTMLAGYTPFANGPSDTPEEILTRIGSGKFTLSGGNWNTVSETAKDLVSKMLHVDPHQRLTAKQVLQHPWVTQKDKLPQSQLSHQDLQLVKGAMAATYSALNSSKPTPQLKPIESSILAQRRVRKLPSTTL
Fibroblast growth factor receptor 1, sequence (P11362 22-822 limits assumed): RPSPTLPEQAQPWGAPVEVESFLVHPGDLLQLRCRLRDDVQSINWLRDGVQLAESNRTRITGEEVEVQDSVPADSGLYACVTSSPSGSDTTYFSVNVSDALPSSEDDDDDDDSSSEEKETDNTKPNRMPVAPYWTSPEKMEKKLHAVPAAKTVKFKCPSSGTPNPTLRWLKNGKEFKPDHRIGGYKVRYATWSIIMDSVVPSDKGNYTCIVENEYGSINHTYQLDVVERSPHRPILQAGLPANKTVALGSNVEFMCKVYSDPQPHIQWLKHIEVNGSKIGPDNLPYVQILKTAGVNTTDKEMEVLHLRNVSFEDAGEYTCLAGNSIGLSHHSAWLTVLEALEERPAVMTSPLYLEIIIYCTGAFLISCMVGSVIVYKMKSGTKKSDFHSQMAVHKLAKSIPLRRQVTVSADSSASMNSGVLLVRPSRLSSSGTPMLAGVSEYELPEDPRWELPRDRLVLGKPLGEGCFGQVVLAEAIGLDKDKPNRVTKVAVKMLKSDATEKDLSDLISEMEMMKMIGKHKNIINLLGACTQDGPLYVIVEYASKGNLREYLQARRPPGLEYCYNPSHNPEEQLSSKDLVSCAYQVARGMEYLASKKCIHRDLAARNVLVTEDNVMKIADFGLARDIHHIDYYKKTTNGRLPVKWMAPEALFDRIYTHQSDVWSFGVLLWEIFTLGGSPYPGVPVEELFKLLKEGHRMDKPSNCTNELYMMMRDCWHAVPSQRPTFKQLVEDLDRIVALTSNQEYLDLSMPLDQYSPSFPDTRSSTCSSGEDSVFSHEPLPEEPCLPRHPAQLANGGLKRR
Mitogen-activated protein kinase 7 (Homo sapiens), sequence (Q13164 2-816 limits assumed): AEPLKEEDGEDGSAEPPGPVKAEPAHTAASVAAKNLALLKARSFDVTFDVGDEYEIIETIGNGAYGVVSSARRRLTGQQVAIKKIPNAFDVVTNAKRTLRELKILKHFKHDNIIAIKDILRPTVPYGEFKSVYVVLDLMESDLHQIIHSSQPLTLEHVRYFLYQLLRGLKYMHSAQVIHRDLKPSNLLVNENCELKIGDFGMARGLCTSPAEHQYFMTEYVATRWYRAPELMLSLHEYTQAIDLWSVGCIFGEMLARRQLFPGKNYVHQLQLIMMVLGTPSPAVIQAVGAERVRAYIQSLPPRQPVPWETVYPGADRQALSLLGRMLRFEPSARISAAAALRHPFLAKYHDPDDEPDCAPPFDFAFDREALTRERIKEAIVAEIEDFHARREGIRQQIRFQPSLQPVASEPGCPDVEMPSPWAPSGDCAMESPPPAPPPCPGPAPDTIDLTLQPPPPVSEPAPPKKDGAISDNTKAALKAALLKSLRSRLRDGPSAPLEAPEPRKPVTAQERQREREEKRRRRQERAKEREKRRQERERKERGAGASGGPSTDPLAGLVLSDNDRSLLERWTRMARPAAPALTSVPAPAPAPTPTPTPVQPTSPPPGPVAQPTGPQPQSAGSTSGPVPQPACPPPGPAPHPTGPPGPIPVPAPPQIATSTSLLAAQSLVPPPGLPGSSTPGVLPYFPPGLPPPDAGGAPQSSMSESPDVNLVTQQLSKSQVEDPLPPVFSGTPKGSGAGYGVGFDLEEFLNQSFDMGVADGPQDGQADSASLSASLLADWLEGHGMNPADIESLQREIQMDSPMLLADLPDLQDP

`Cc1ccc(-c2ccc3c(ccc4sc5c(c43)NC[C@@H](C)NC5=O)n2)cn1` came in with a % of inhibition in experiment [1] of 3%.
In turn, `Cc1cc([C@@H](C)Nc2ccccc2C(=O)O)c2nc(N3CCOCC3)cc(=O)n2c1` [AZD-6482] showed a % of control in [2] of 100%.
Compound `CN(C)C/C=C/C(=O)Nc1ccc(C(=O)N2CCCC(Nc3ncc(Cl)c(-c4c[nH]c5ccccc45)n3)C2)cc1` (configuration not stated) displayed a % of control in experiment [3] of 86%.
As to `Nc1cnc(N2CCc3cc(S(=O)(=O)Nc4c(F)cc(Cl)cc4F)cc(N4CCCC4=O)c32)nc1` [TP-020n], the % of control turned out to be 100% in experiment [4]; 89% in [5]; 100% in [6]; 100% in experiment [7]; 100% in experiment [8].
Regarding `Cc1cc(F)c(C(=O)Nc2cccc(-c3nncn3C(C)C)n2)cc1-n1cnc(C2CC2)c1`, the % of control in experiment [9] stood at 87%.
`CC[C@@H]1[C@H](F)C(=O)N[C@@H]1COc1nccc2cc(C(N)=O)c(OC)cc12` [ZIMLOVISERTIB]: the % of inhibition in experiment [10] worked out at 3.7%.
`CN(C(=O)c1cnn2cccnc12)c1cc2c(cc1N1CCOCC1)C(=O)N(C[C@@H](F)C(C)(C)O)C2` gave a dTM in experiment [11] of 0.1 K.
Regarding `C=CC(=O)Nc1ccc(C(=O)Nc2[nH]nc3c2CN(C(=O)N[C@H](CN(C)C)c2ccccc2)C3(C)C)cc1`, in experiment [12], the % of engagement was 1.2%.

(Values after ChEMBL document CHEMBL5465560, “Selectivity Literature for EUbOPEN Chemogenomic Library” (2024).)
